Experimental data from US20090105235A1, “INSECTICIDAL COMPOSITIONS WITH IMPROVED EFFECT” (Bayer CropScience AG, priority 2005, published 2009).
Read-outs that look alike come from different tables or passages of the source.

What was measured:
Type in all cases: in vivo
[1] = test system: Aphis gossypii; assay: Aphis gossypii test (Example A), cotton, spraying upper side of leaf; details: active compound 24 g/ha, spray volume 600 l/ha
Experimental: To produce a suitable preparation of active compound, 1 part by weight of active compound is mixed with the stated amounts of solvent and emulsifier, and the concentrate is diluted with water to the desired concentration. If addition of ammonium salts, phosphonium salts or penetrants is required, the appropriate amount is added by pipette after dilution of the respective finished preparation solution.
Single-leaf cotton plants (Gossypium hirsutum) which are heavily infested by the cotton aphid (Aphis gossypii) are treated by spraying of the upper side of the leaf (spray volume 600 l/ha) with the active compound preparation at the desired concentration.
(§1) After the desired period of time, the kill in % is determined. 100% means that all animals have been killed; 0% means that none of the animals have been killed.

[2] = test system: Myzus persicae; assay: Myzus persicae test (Example D), bell pepper plants sprayed; details: for pest or weed control at 0.16 ppm / pest or weed control at 0.8 ppm / pest or weed control at 4 ppm: Myzus persicae, 144 h, read-out: Kill rate after 6 days, Without penetrant and AS; for Kill rate after 6 days, With penetrant and AS: with penetrant and AS (in each case 1000 ppm)
Experimental: (§2) To produce a suitable preparation of active compound, 1 part by weight of active compound is mixed with the stated amounts of solvent and emulsifier, and the concentrate is diluted with emulsifier-containing water to the desired concentration. If addition of ammonium salts or ammonium salts and penetrant is required, the appropriate amount is added by pipette after dilution of the respective finished preparation solution (in each case 1000 ppm).
Bell pepper plants (Capsicum annuum) which are heavily infested by the green peach aphid (Myzus persicaei) are treated by spraying with the active compound preparation at the desired concentration.
as §1

[3] = test system: Aphis gossypii; assay: Aphis gossypii test (Example E), cotton leaves sprayed; details: for Kill rate after 6 days, With penetrant and AS: with penetrant and AS (in each case 1000 ppm)
Experimental: as §2
Cotton leaves (Gossypium hirsutum) which are heavily infested by the cotton aphid (Aphis gossypii) are sprayed with an active compound preparation at the desired concentration.
After the desired period of time, the kill in % is determined. 100% means that all aphids have been killed; 0% means that none of the aphids have been killed.

[4] = test system: Myzus persicae; assay: Myzus persicae test (Example G), bell pepper, spraying upper side of leaf; details: active compound 2.4 g/ha
Experimental: (§3) To produce a suitable preparation of active compound, 1 part by weight of active compound is mixed with the stated amounts of solvent and emulsifier, and the concentrate is diluted with water to the desired concentration. If addition of ammonium salts or ammonium salts and penetrant is required, the appropriate amount is added by pipette after dilution of the respective finished preparation solution (in each case 1000 ppm).
Single-leaf bell pepper plants (Capsicum annuum) which are heavily infested by the green peach aphid (Myzus persicaei) are treated by spraying of the upper side of the leaf with the active compound preparation at the desired concentration.
as §1

[5] = test system: Myzus persicae; assay: Myzus persicae test (Example F), bell pepper, spraying underside of leaf; details: active compound 0.48 g/ha
Experimental: as §3
Single-leaf bell pepper plants (Capsicum annuum) which are heavily infested by the green peach aphid (Myzus persicaei) are treated by spraying of the underside of the leaf with the active compound preparation at the desired concentration.
as §1

[6] = test system: Aphis gossypii; assay: Aphis gossypii test (APHIGO contact) (Example H), cotton, spraying underside of leaf; details: active compound 0.192 g/ha
Experimental: as §3
Single-leaf cotton plants (Gossypium hirsutum) which are heavily infested by the cotton aphid (Aphis gossypii) are treated by spraying of the underside of the leaf with the active compound preparation at the desired concentration.
as §1

[7] = test system: Aphis gossypii; assay: Aphis gossypii test (APHIGO translaminar) (Example I), cotton, spraying upper side of leaf; details: active compound 0.192 g/ha
Experimental: as §3
Single-leaf cotton plants (Gossypium hirsutum) which are heavily infested by the cotton aphid (Aphis gossypii) are treated by spraying of the upper side of the leaf with the active compound preparation at the desired concentration.
as §1

[8] = active compound 0.16 ppm, 6 days
[9] = Aphis gossypii, 144 h, read-out: Kill rate after 6 days, Without penetrant and AS
[10] = active compound 0.8 ppm, 6 days
[11] = with penetrant and AS (in each case 1000 ppm)
[12] = active compound 0.16 ppm, without penetrant and AS, 6 days
[13] = Aphis gossypii, 144 h, active compound 0.16 ppm, without penetrant and AS, 6 days, read-out: Kill rate after 6 days, Without penetrant and AS
[14] = active compound 0.8 ppm, without penetrant and AS, 6 days
[15] = Aphis gossypii, 144 h, active compound 0.8 ppm, without penetrant and AS, 6 days, read-out: Kill rate after 6 days, Without penetrant and AS

Structure (SMILES): CON/C(=N\[N+](=O)[O-])NCc1cnc(Cl)s1 [(Ib-3)]
- Kill rate after 3 days, With AS 1 g/l ([1]; with ammonium sulphate 1 g/l): 99%
- Kill rate after 3 days, Without AS ([1]; without ammonium sulphate): 77%

Structure (SMILES): CN1COCN(Cc2cnc(Cl)s2)/C1=N/[N+](=O)[O-] [Ia-1, thiamethoxam, reference compound]
- pest or weed control at 0.16 ppm [2]: 10%
- Kill rate after 6 days, With penetrant and AS [2, 8]: 85%
- pest or weed control at 0.16 ppm [3, 9]: 0%
- Kill rate after 6 days, With penetrant and AS [3, 8]: 40%

Structure (SMILES): CN/C(=N\[N+](=O)[O-])NCc1cnc(Cl)s1 [Ia-2, clothianidin, reference compound]
- pest or weed control at 0.8 ppm [2]: 60%
- Kill rate after 6 days, With penetrant and AS [2, 10]: 100%

Structure (SMILES): N#C/N=C1\SCCN1Cc1ccc(Cl)nc1 [Ia-3, thiacloprid, reference compound]
- pest or weed control at 0.16 ppm [2]: 0%
- Kill rate after 6 days, With penetrant and AS [2, 8]: 50%
- pest or weed control at 0.16 ppm [3, 9]: 0%
- Kill rate after 6 days, With penetrant and AS [3, 8]: 70%

Structure (SMILES): CN/C(=N\[N+](=O)[O-])NCC1CCOC1 (stereo not drawn) [Ia-4, dinotefuran, reference compound]
- pest or weed control at 4 ppm [2]: 10%
- Kill rate after 6 days, With penetrant and AS ([2]; active compound 4 ppm, 6 days): 80%
- pest or weed control at 0.8 ppm [3, 9]: 0%
- Kill rate after 6 days, With penetrant and AS [3, 10]: 35%

Structure (SMILES): C/C(=N\C#N)N(C)Cc1ccc(Cl)nc1 [Ia-5, acetamiprid, reference compound]
- pest or weed control at 0.16 ppm [2]: 0%
- Kill rate after 6 days, With penetrant and AS [2, 8]: 90%

Structure (SMILES): CCN(Cc1ccc(Cl)nc1)/C(=C/[N+](=O)[O-])NC [Ia-6, nitenpyram, reference compound]
- pest or weed control at 0.8 ppm [2]: 10%
- Kill rate after 6 days, With penetrant and AS [2, 10]: 90%
- pest or weed control at 0.8 ppm [3, 9]: 25%
- Kill rate after 6 days, With penetrant and AS [3, 10]: 99%

Structure (SMILES): O=[N+]([O-])/N=C1\NCCN1Cc1ccc(Cl)nc1 [Ia-7, imidacloprid, reference compound]
- pest or weed control at 4 ppm [2]: 40%
- Kill rate after 6 days, With penetrant and AS ([2]; active compound 4 ppm, 6 days): 100%
- pest or weed control at 4 ppm [3, 9]: 15%
- Kill rate after 6 days, With penetrant and AS ([3]; active compound 4 ppm, 6 days): 95%

Structure (SMILES): O=[N+]([O-])/N=C1\NCCN1Cc1cnc(Cl)s1 [Ia-8, imidaclothiz, reference compound]
- pest or weed control at 0.8 ppm [3, 9]: 65%
- Kill rate after 6 days, With penetrant and AS [3, 10]: 95%

Structure (SMILES): CN1CN(C)/C(=N\[N+](=O)[O-])N(Cc2cnc(Cl)s2)C1 [Ia-9, AKD-1022]
- pest or weed control at 0.8 ppm [2]: 70%
- Kill rate after 6 days, With penetrant and AS [2, 10]: 100%
- pest or weed control at 0.8 ppm [3, 9]: 80%
- Kill rate after 6 days, With penetrant and AS [3, 10]: 100%

Structure (SMILES): C/N=C(\C(=C/N(C)C)[N+](=O)[O-])N(C)Cc1ccc(Cl)nc1 [Ic-1]
- Kill rate after 7 days, With penetrant and AS [4, 11]: 53%
- Kill rate after 7 days, Without penetrant and AS ([4]; without penetrant and AS): 0%
- Kill rate after 7 days, With penetrant and AS [5, 11]: 67%
- Kill rate after 7 days, Without penetrant and AS ([5]; without penetrant and AS): 0%
- Kill rate after 7 days, With penetrant and AS [6, 11]: 70%
- Kill rate after 7 days, Without penetrant and AS ([6]; without penetrant and AS): 0%
- pest or weed control at 0.8 ppm [2]: 0%
- Kill rate after 6 days, With penetrant and AS [2, 10]: 95%
- pest or weed control at 0.8 ppm [3, 9]: 5%
- Kill rate after 6 days, With penetrant and AS [3, 10]: 60%

Structure (SMILES): CN/C(=C\[N+](=O)[O-])C(C)c1ccc(Cl)nc1 (stereo not drawn) [Id-1]
- pest or weed control at 0.8 ppm [2]: 0%
- Kill rate after 6 days, With penetrant and AS [2, 10]: 90%
- pest or weed control at 0.8 ppm [3, 9]: 0%
- Kill rate after 6 days, With penetrant and AS [3, 10]: 55%

Structure (SMILES): O=C/C(=C1/NCCN1Cc1ccc(Cl)nc1)[N+](=O)[O-] [Ie-2]
- pest or weed control at 0.16 ppm [2]: 10%
- Kill rate after 6 days, With penetrant and AS [2, 8]: 95%
- pest or weed control at 0.16 ppm [3, 9]: 10%
- Kill rate after 6 days, With penetrant and AS [3, 8]: 95%

Structure (SMILES): CN(Cc1ccc(Cl)nc1)C1=CC(=O)OC1 [If-1]
- pest or weed control at 0.16 ppm [2, 12]: 20%
- Kill rate after 6 days, With penetrant and AS [2, 8]: 85%
- pest or weed control at 0.16 ppm [3, 13]: 30%
- Kill rate after 6 days, With penetrant and AS [3, 8]: 75%
- Kill rate after 7 days, With penetrant and AS [7, 11]: 70%
- Kill rate after 7 days, Without penetrant and AS ([7]; without penetrant and AS): 0%

Structure (SMILES): O=C1C=C(NCc2ccc(Cl)nc2)CO1 [If-2]
- pest or weed control at 0.16 ppm [2, 12]: 0%
- Kill rate after 6 days, With penetrant and AS [2, 8]: 50%
- pest or weed control at 0.16 ppm [3, 13]: 0%
- Kill rate after 6 days, With penetrant and AS [3, 8]: 50%

Structure (SMILES): C=CCN(CCN/C(=C/[N+](=O)[O-])SC)Cc1ccc(Cl)nc1 [Ih-1]
- pest or weed control at 0.8 ppm [2, 14]: 20%
- Kill rate after 6 days, With penetrant and AS [2, 10]: 98%
- pest or weed control at 0.8 ppm [3, 15]: 5%
- Kill rate after 6 days, With penetrant and AS [3, 10]: 95%

Structure (SMILES): C#CCN(CCN/C(=C/[N+](=O)[O-])OC)Cc1ccc(Cl)nc1 [Ih-2]
- pest or weed control at 0.8 ppm [2, 14]: 80%
- Kill rate after 6 days, With penetrant and AS [2, 10]: 98%
- pest or weed control at 0.8 ppm [3, 15]: 65%
- Kill rate after 6 days, With penetrant and AS [3, 10]: 90%

Structure (SMILES): C#CCN(CCN/C(=N/[N+](=O)[O-])OC)Cc1ccc(Cl)nc1 [Ih-3]
- pest or weed control at 0.8 ppm [3, 15]: 15%
- Kill rate after 6 days, With penetrant and AS [3, 10]: 55%

Structure (SMILES): CS/C(=N\[N+](=O)[O-])NCCN(Cc1ccc(Cl)nc1)CC1CC1 [Ih-4]
- pest or weed control at 0.8 ppm [3, 15]: 15%
- Kill rate after 6 days, With penetrant and AS [3, 10]: 45%
